Test results published in patent publication US20210187046A1, “COCKTAIL COMPOSITIONS COMPRISING RESPIRATORY ANTIBACTERIAL PHAGES AND METHODS OF USE THEREOF” (priority 2019, published 2021).
Converted amounts (≈) assume the structure as drawn. Read-outs that look alike come from different tables or passages of the source.

Legend:
[1] = tested on: P. aeruginosa PSA_1992/05; assay: Broth microdilution MIC with and without bacteriophage cocktail; assay type: cell-based, Pseudomonas aeruginosa
Experimental: The method was developed and optimized as a proof of concept for P. aeruginosa using a single strain infected by all three phages (PSA_1992/05; NCIMB deposit 42914)). […] Different time points (4 h, 6 h, 12 h and 18 h) were used for optimization of the technique, but final readings were determined at 18 h. All experiments were conducted in duplicates. The study was optimized for the individual bacteriophages and a final assay is presented here containing data for the complete cocktail.

[2] = tested on: K. pneumoniae bacterial isolates (n=36); assay: Antibiotic susceptibility testing by disk diffusion; assay type: cell-based, Klebsiella pneumoniae; conditions: EUCAST cut-off values
Experimental: A selected group of K. pneumoniae bacterial isolates were collected between 2005 and 2019 (n=36), in at least 7 different health care facilities. Overall, these isolates were collected from hospital settings (n=25), outpatients (n=9), or from unknown origin (n=2), and from a diversity of biological products [urine (n=10), respiratory secretions (n=5), unknown (n=8), abdominal fluids (n=5) and others (n=8)]. This panel was evaluated with regards to antibiotic susceptibility testing by disk diffusion method against a selected panel of clinically important antibiotics (β-lactam antibiotics—ampicillin, ceftazidime, piperacillin with tazobactam, and meropenem; fluoroquinolones—ciprofloxacin; aminoglycosides—gentamicin; and sulphonamides—trimethoprim with sulfamethoxazole). Interpretation of results was performed according to the cut-off values recommended by the European Committee on Antimicrobial Susceptibility Testing (EUCAST, http://mic.eucast.org/Eucast2/). Isolates were considered multidrug resistant (MDR) when presenting non-susceptibility to three or more structurally unrelated classes of antibiotics (Magiorakos A P, Srinivasan A, Carey R B., Carmeli Y, Falagas M E, et al. 2011. Clin Microbiol Infect 2012; 18: 268-281).

[3] = Pseudomonas aeruginosa, No Phage, reading at 18 h, read-out: MIC
[4] = in the presence of bacteriophage cocktail TP-122A at MOI 0.1, 18 h
[5] = in the presence of bacteriophage cocktail TP-122A at MOI 1, 18 h
[6] = in the presence of bacteriophage cocktail TP-122A at MOI 10, 18 h

| Compound | MIC [1, 3] [µg/mL] | MIC [1, 4] [µg/mL] | MIC [1, 5] [µg/mL] | MIC [1, 6] [µg/mL] | MIC ([1]; No Phage, reading at 18 h) | isolates non-susceptible [2] [%] | MIC ([1]; Pseudomonas aeruginosa, 18 h) [µg/mL] |
| --- | --- | --- | --- | --- | --- | --- | --- |
| NCC[C@H](O)C(=O)N[C@@H]1C[C@H](N)[C@@H](O[C@H]2O[C@H](CN)[C@@H](O)[C@H](O)[C@H]2O)[C@H](O)[C@H]1O[C@H]1O[C@H](CO)[C@@H](O)[C@H](N)[C@H]1O [AK, amikacin] | 0.5 (≈ 0.854 µM) | ≤0.016 | ≤0.016 | ≤0.016 | – | – | – |
| CC(C)(O/N=C(\C(=O)N[C@@H]1C(=O)N2C(C(=O)[O-])=C(C[n+]3ccccc3)CS[C@H]12)c1csc(N)n1)C(=O)O [C/ZD, ceftazidime] | – | ≤0.016 | ≤0.016 | ≤0.016 | .5 µg/mL (≈ 0.915 µM) | 86.1 | – |
| CC(=O)NC[C@H]1CN(c2ccc(N3CCOCC3)c(F)c2)C(=O)O1 [LZD, linezolid] | > 32 | ≤0.016 | ≤0.016 | ≤0.016 | – | – | – |
| C[C@@H](O)[C@H]1C(=O)N2C(C(=O)O)=C(S[C@@H]3CN[C@H](C(=O)N(C)C)C3)[C@H](C)[C@H]12 [MEM, meropenem] | 0.25 (≈ 0.652 µM) | ≤0.016 | ≤0.016 | ≤0.016 | – | 77.8 | – |
| CN[C@H](CC(C)C)C(=O)N[C@H]1C(=O)N[C@@H](CC(N)=O)C(=O)N[C@H]2C(=O)N[C@H]3C(=O)N[C@H](C(=O)N[C@H](C(=O)O)c4cc(O)cc(O)c4-c4cc3ccc4O)[C@H](O)c3ccc(c(Cl)c3)Oc3cc2cc(c3O[C@@H]2O[C@H](CO)[C@@H](O)[C@H](O)[C@H]2O[C@H]2C[C@](C)(N)[C@H](O)[C@H](C)O2)Oc2ccc(cc2Cl)[C@H]1O [VA, vancomycin] | – | ≤0.016 | ≤0.016 | ≤0.016 | – | – | > 32 |
| CC1(C)S[C@@H]2[C@H](NC(=O)[C@H](N)c3ccccc3)C(=O)N2[C@H]1C(=O)O [ampicillin] | – | – | – | – | – | 100 | – |
| O=C(O)c1cn(C2CC2)c2cc(N3CCNCC3)c(F)cc2c1=O [ciprofloxacin] | – | – | – | – | – | 91.7 | – |
| colistin [CS] | – | ≤0.016 | ≤0.016 | ≤0.016 | 0.25 µg/mL | – | – |
| gentamicin | – | – | – | – | – | 72.2 | – |
| piperacillin with tazobactam [TZP] | – | ≤0.016 | ≤0.016 | ≤0.016 | 1 µg/mL | 97.2 | – |
| trimethoprim with sulfamethoxazole | – | – | – | – | – | 88.9 | – |
